Type in all cases: cell-based
In assay [1] the test system is E. coli expressing both β-D-glucuronidase and β-D-galactosidase. As to the kind of experiment: broth media in the presence of ONPG. Particulars: ONPG 1.5 g/L, broth with FAC. How it is done:
The two indoxyl glucuronides used produce insoluble endpoints following hydrolysis, as does the CPS ID 3 medium. It was therefore necessary to test these two substrates on agar plates. In contrast, catechol-β-D-glucuronide (1) and DHN-β-D-glucuronide (2b) give much more soluble endpoints best suited to liquid media and were therefore tested in a broth medium. Each broth was prepared using proteose peptone (Oxoid, Basingstoke, UK) (2 g), NaCl (1 g) and FAC (100 mg) in DI water (180 mL). This mixture was autoclaved and cooled to room temperature before being dispensed into bijoux (100×1.8 mL). Catechol β-D-glucuronide CHA salt (1) or DHN-β-D-glucuronide CHA salt (2b) (60 mg) were each dissolved in water (20 mL) and filtered to sterilize before being aseptically dispensed into successive bijoux (0.2 mL) containing the broth solution. […]
Because many E. coli produce both β-D-glucuronidase and β-D-galactosidase, catechol-β-D-glucuronide (1) and DHN-β-D-glucuronide (2b) were tested as in the broth media described above but in the presence of o-nitrophenyl-β-D-galactoside (ONPG) (at a concentration of 1.5 g/L). […] With either substrate, the colour of these solutions of mixed chromogens could be very readily distinguished with the unaided eye from the yellow colour of those strains, such as E. cloacae, that produced β-D-galactosidase only. […]

The next assay deals with E. faecalis NCTC 775. Put plainly: screen of strains on agar plates (CPS ID 3 or Columbia agar). Particulars: 37° C. 18 hours. Also on record: key: Red, Green, Black or Purple mean strong colour; Red, Green, Black or Purple mean strong colour; Red, Green, Black or Purple mean strong colour; Red, Green, Black or Purple mean strong colour; +/− means less colour than strong; Tr means a trace of colour, less than +/−; — means no colour.

In the next assay the test system is E. faecium NCTC 7171. The description is as above. Also on record: key: Red, Green, Black or Purple mean strong colour; Red, Green, Black or Purple mean strong colour; Red, Green, Black or Purple mean strong colour; Red, Green, Black or Purple mean strong colour; +/− means less colour than strong; Tr means a trace of colour, less than +/−; — means no colour. The settings on record: 37° C. 18 hours.

Each structure is given as a SMILES string. Where a name gives a salt, the structure may show the parent alone.

In the case of `O=C(O)C1OC(Oc2ccccc2O)C(O)C(O)C1O` [Compound 1, Catechol β-D-Glucuronide CHA Salt], the “colour of solutions in the presence of ONPG” value in assay [1] is listed as “greyish-black solutions”.
Still for that read-out and setting: to `O=C(O)C1OC(Oc2cc3ccccc3cc2O)C(O)C(O)C1O` [Compound 2b, DHN-β-D-Glucuronide CHA Salt] belongs “purple-brown solutions”.
With `O=C(O)[C@H]1O[C@@H](Oc2c[nH]c3cc(Cl)ccc23)[C@H](O)[C@@H](O)[C@@H]1O` [Rose-β-D-glucuronide CHA salt, 6-chloro-3-indolyl β-D-glucuronide], the colour result in the assay with E. faecalis NCTC 775 and in the assay with E. faecium NCTC 7171 was “—” each time.
As to `O=C(O)[C@H]1O[C@@H](Oc2c[nH]c3ccc(Br)c(Cl)c23)[C@H](O)[C@@H](O)[C@@H]1O` [X-β-D-glucuronide CHA salt, 5-bromo-4-chloro-3-indolyl β-D-glucuronide], the colour result in the assay with E. faecalis NCTC 775 and with E. faecium NCTC 7171 was “—” throughout.

These data come from US9879303B2, “Chromogenic glucuronidase substrates and uses” (Glycosynth Limited, priority 2013, dated 2018).
